Assay results published in ChEMBL document CHEMBL1201862, “PubChem BioAssay data set” (2004).
Activity calls are given as the source filed them.

What was measured:
[1] = molecular target: T1, Rac GTPase-activating protein 1 (Homo sapiens, UniProt Q9H0H5); test: MgcRacGAP GTPase-activating activity inhibitors, confirmation, biochemical, ADP Hunter fluorescence, primary and confirmatory (AID 624330); type: functional
T1 sequence (Q9H0H5 whole entry): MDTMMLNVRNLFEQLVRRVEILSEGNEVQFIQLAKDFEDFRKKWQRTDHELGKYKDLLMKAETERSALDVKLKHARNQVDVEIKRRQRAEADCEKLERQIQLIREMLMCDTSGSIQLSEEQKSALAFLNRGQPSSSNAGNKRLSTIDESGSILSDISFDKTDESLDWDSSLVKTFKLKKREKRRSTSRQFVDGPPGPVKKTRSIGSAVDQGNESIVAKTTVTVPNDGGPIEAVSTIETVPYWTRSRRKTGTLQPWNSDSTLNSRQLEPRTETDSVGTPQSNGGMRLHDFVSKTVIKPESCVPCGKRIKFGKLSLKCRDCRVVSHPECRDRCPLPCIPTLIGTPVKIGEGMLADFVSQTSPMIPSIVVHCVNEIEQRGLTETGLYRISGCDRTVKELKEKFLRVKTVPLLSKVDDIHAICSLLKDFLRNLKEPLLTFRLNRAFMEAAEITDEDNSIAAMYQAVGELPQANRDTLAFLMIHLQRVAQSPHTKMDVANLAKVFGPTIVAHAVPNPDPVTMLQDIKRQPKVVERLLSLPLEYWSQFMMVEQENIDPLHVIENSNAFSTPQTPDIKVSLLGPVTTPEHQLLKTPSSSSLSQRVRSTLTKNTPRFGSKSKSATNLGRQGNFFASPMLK

[2] = HeLa cell cytotoxicity, dose response, cytotoxicity control for MgcRacGAP inhibitor project (AID 624300); type: functional
Vero = test: cells; type: functional; conditions: Chlorocebus sabaeus
BJ [3] = test: cytotoxicity toward BJ-TERT fibroblasts, dose response, cell-based, RAS-independent, luminescence (AID 1933); type: functional; conditions: Homo sapiens
BJ [4] = test: cells; type: functional, cell-based; conditions: Homo sapiens
[5] = cytotoxicity toward DRD oncogenic fibroblasts, dose response, cell-based, non-viral oncogenic, luminescence (AID 1934); type: functional; conditions: Homo sapiens
BJ [6] = test: cytotoxicity toward BJ-TERT-LT-ST fibroblasts, dose response, cell-based, RAS-independent, luminescence (AID 1935); type: functional; conditions: Homo sapiens;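 also: BJ fibroblasts immortalized with TERT plus LT and ST oncogenes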
H9c2 = test: cells; type: functional, cell-based; conditions: Rattus norvegicus, H9c2, Myocardium;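 also: confirmatory concentration-response retest of ultra-high-throughput screening hits for modulation of myocardial damage; cell death induced by hydrogen peroxide oxidative stress; compound pretreatment for 60 min then peroxide exposure for 2 h; potency is for protecting the cells against peroxide damage rather than for killing them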
[7] = molecular target: T2, Carboxy-terminal domain RNA polymerase II polypeptide A small phosphatase 1 (Homo sapiens, UniProt Q9GZU7); test: inhibitors of CTDSP1, concentration-response testing, biochemical assay, absorbance-based, actives from ultra-high-throughput screening (AID 540297); type: functional
T2 sequence (Q9GZU7 whole entry): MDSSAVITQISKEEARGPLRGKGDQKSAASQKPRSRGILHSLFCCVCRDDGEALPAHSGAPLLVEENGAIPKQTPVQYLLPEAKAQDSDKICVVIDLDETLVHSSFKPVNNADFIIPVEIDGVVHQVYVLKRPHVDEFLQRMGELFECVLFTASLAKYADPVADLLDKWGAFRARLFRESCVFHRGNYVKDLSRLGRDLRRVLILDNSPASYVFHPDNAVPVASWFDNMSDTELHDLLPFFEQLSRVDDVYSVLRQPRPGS

[8] = molecular target: T3, Microphthalmia-associated transcription factor (Homo sapiens, UniProt O75030); test: TRPM1 promoter luciferase signal decrease, dose response, MITF inhibitor project, cell-based, SK-MEL-5, cherry-picked, set 3 (AID 493073); type: functional
T3 sequence (O75030 whole entry): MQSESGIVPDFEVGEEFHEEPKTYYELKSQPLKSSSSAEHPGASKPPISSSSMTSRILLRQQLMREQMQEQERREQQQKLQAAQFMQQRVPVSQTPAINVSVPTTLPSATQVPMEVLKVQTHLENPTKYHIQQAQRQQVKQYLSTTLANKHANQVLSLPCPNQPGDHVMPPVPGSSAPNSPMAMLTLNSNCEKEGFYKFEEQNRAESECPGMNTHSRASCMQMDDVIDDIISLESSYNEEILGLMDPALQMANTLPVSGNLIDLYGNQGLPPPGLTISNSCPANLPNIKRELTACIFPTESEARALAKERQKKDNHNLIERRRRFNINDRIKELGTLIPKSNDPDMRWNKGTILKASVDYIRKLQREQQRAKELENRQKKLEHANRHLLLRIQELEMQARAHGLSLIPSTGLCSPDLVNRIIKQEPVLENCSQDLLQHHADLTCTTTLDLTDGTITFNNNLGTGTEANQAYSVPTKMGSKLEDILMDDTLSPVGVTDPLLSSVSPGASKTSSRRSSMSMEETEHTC

Leucine aminopeptidase = molecular target: T4, Leucine aminopeptidase (Plasmodium falciparum 3D7, UniProt Q8IL11); test: P. falciparum M17LAP inhibitors, primary screen, biochemical, fluorogenic H-Leu-NHMec substrate, 1536-well (AID 1619); type: functional
T4 sequence (Q8IL11 whole entry): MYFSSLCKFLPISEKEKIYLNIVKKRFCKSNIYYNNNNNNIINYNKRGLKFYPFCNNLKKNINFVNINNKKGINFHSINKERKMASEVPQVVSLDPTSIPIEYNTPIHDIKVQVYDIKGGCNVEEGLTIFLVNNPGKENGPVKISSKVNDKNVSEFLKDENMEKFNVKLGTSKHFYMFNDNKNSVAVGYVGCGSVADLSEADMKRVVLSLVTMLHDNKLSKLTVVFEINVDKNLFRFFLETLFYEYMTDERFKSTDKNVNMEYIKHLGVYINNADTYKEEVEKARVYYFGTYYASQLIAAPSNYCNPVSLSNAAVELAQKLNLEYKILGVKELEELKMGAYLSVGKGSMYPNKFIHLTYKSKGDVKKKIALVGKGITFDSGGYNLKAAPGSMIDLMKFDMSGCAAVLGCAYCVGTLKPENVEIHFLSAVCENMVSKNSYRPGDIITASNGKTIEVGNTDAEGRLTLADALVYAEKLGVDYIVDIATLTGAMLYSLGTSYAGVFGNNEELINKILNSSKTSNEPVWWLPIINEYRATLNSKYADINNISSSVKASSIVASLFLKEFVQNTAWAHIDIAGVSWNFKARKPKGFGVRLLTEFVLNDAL

[9] = molecular target: T5, RNA-binding protein pos-1 (Caenorhabditis elegans, UniProt G5EF15); test: inhibitors of POS-1/mex-3 RNA binding, dose response, biochemical, fluorescence polarization (AID 1964);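 also: purified POS-1 fused to maltose binding protein made in E. coli; potency of compounds blocking POS-1 binding to fluorescent RNA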
T5 sequence (G5EF15 whole entry): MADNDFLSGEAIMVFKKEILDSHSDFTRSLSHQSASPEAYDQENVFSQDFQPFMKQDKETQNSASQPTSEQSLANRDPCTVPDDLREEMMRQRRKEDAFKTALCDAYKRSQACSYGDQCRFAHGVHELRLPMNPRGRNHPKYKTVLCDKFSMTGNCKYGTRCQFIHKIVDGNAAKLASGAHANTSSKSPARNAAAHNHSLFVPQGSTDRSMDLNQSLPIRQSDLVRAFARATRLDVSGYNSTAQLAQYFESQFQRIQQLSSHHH

[10] = molecular target: T6, Zinc finger protein mex-5 (Caenorhabditis elegans, UniProt Q9XUB2); test: MEX-5/TCR-2 RNA interaction inhibitors, dose response, biochemical, C. elegans, fluorescence polarization (AID 1960)
T6 sequence (Q9XUB2 whole entry): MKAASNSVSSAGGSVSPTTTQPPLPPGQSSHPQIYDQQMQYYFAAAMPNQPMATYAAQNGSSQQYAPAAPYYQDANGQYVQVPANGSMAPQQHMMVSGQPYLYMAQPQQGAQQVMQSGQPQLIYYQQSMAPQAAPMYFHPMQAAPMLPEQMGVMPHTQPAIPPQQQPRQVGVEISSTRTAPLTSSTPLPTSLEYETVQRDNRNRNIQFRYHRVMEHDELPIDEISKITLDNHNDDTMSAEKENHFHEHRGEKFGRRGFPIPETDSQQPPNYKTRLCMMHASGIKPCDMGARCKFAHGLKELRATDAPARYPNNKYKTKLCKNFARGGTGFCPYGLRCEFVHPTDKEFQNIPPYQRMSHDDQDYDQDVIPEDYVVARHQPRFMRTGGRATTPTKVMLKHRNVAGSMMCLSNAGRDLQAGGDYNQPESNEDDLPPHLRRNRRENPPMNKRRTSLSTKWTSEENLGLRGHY

Cytochrome P450 3A4 = Cytochrome P450 3A4 (Homo sapiens, UniProt P08684);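 also: CYP3A4 tested as one member of a cytochrome P450 panel screen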
Cytochrome P450 2C19 = Cytochrome P450 2C19 (Homo sapiens, UniProt P33261); test: Cytochrome panel assay with activity outcomes. Panel member name: p450-cyp2c19 Compounds with AC50 equal or less than 10 uM are considered active; type: functional; conditions: read-out: AC50
Sequence of Cytochrome P450 2C19 (P33261 whole entry): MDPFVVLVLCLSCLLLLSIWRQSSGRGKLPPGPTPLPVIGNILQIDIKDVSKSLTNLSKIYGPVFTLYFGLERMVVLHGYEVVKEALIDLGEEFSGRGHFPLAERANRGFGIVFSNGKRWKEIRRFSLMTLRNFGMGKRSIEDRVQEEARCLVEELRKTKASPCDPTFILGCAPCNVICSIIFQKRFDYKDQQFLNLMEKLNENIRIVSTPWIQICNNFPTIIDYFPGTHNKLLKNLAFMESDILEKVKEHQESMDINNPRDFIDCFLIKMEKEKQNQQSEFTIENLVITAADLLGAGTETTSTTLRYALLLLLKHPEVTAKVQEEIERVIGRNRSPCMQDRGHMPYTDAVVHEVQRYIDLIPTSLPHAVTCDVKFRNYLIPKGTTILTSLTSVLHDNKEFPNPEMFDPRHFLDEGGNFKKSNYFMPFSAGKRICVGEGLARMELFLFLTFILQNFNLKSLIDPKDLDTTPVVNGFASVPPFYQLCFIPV

Sequence of Cytochrome P450 3A4 (P08684 whole entry): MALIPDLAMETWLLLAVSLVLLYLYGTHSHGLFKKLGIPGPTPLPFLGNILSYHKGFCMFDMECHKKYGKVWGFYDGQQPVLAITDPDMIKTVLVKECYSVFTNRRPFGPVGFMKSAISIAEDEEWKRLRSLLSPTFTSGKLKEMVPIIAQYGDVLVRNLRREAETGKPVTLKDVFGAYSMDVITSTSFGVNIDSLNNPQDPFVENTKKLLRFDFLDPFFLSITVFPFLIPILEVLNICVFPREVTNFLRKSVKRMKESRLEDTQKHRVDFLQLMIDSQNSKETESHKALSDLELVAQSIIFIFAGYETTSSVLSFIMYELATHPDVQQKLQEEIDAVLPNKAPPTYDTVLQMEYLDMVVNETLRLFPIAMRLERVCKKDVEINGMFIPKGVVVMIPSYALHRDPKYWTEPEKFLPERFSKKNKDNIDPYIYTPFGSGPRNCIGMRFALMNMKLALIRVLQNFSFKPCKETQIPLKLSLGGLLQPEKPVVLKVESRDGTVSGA

With `COc1ccc(-n2cccc2/C=C/[N+](=O)[O-])cc1` the IC50 [1] was 44 µM (active), the CC50 [2] was 42.3 µM (active) and the CC50 (Vero) was 16 µM (active).
With `C=CCNC(=O)c1ccc(NC(=O)C2=CSCCO2)cc1` the EC50 (BJ [3]) was 24.8 µM (active), the EC50 (BJ [4]) was 111 µM (active) and the EC50 [5] was 60.9 µM (active). The EC50 (BJ [6]) was > 150 µM (not active).
With `O=C(CCc1nc(O)c2ccccc2n1)N1CCN(S(=O)(=O)c2cccc([N+](=O)[O-])c2)CC1` the IC50 (H9c2) was > 79 µM (inactive).
In the case of `CCOC(=O)c1ccc2c(c1)[n+](CC)c(/C=C/N(C)c1ccccc1)n2CC`, the IC50 [7] is reported as 4.04 µM (active) and the AC50 [8] is reported as 3.24 µM (active).
For `CC1=C(C)CC(C(=O)Nc2cccc(Cl)c2)C(C(=O)O)C1` (centres undefined), the IC50 (Leucine aminopeptidase) was 2.38 µM (active).
In the case of `COc1cc2c(cc1N=C(S)Nc1cccc(C(F)(F)F)c1)oc1ccccc12`, the IC50 [1] is reported as 225 µM (active) and the CC50 [2] is reported as 100 µM (active).
In the case of `CCCCN1C(=O)/C(=C2/Sc3ccc(OC)cc3N2CC)SC1=S`, the EC50 [9] is reported as > 300 µM (inconclusive) and the EC50 [10] is reported as > 300 µM (inconclusive).
For `Cc1cc(C)c(C)c(S(=O)(=O)N2CCN(C(=O)CCc3nc(O)c4ccccc4n3)CC2)c1C`, the IC50 (H9c2) was > 79 µM (inactive).
For `CC1(C)CC(=O)C2=C(C1)OC(N)=C(C#N)C21C(=O)N2CCCc3cccc1c32` (centres undefined), the EC50 [9] was > 300 µM (not active) and the EC50 [10] was > 300 µM (not active).
In the case of `Clc1ccc(Nc2nc[nH]n2)cc1`, the AC50 (Cytochrome P450 3A4) is reported as 31.6 µM (inconclusive), the AC50 (Cytochrome P450 2C19) is reported as 14.1 µM (inconclusive) and the IC50 (Leucine aminopeptidase) is reported as 1.53 µM (active).
For `O=S(=O)(NNC(=S)Nc1ccc(S(=O)(=O)Nc2ncccn2)cc1)c1ccc(Br)cc1`, the EC50 [9] was 2.97 µM (inconclusive) and the EC50 [10] was 5.04 µM (active).
With `Cc1ccc(-n2c(SCC(=O)OC(C)C)nnc2-c2ccco2)cc1` the IC50 (Leucine aminopeptidase) was 31.2 µM (active).
